The source of these data is patent US20240285765A1, “PHTHALOCYANINE DYE COMPOUNDS, CONJUGATES AND METHODS OF USE THEREOF” (Rakuten Medical, Inc., priority 2021, published 2024).

Where two headings read alike, the source gives them in different places. Where only a bound is given, the exact number is not on record here.

Data set [1] deals with BxPC3 cells. As to the kind of experiment: Cell killing of free dye PIT, CellTox Green Cytotoxicity Assay. The data set is classed as cell-based. As to conditions: BxPC3, 0-1 μg/mL free dye, 690 nm laser 64 J/cm2, 24 hours after light. As for the experimental part: The PIT killing activity of free dyes were evaluated using the molecules synthesized as Example 12 and Example 13. BxPC3 cells (#CRL-1687, ATCC, Manassas VA) were plated, 5,000 cells per well, in RPMI-1640 media supplemented with 10% FBS and 1% Penicillin/Streptomycin (complete culture media) in a deep-well 96-well plate. Following overnight incubation at 37° C., the culture media were removed and the cells were incubated in 100 μL complete media with 1, 0.333, 0.111, 0.03704, 0.01235, 0.00412, 0.00137, or 0 μg/mL Example 12, Example 13, or IRDye 700DX carboxylate (control) for one hour at 4° C. […]
The effect of different treatment regimens on cell death was measured using the CellTox™ Green Cytotoxicity Assay (Cat No: G8742, Promega, Madison, WI). […] The CellTox™ Green fluorescence signal was measured at 24 hours after light treatment using a fluorescence plate reader. The cells were then lysed with diluted lysis solution (Cat No: G1821, Promega, Madison, WI), incubated at 37° C. for 30 minutes, and the CellTox™ Green fluorescence signal was measured again post-lysis. The percentages of dead cells were calculated by taking the ratio between background (1× CellTox™ Green in complete culture media without cells)-subtracted CellTox™ Green signal per well prior to and post lysis and multiplying the ratio by 100.

The nature of data set [2]: Singlet oxygen quantum yield, indirect method with chemical quencher (DPBF or ADMA). The data set is classed as physicochemical. As to conditions: quencher ADMA, aqueous media, 670 nm LED 5 mW/cm^2, reference AlPcSmix. The text has this: Photogeneration quantum yields of singlet oxygen (ΦΔ) were obtained by an indirect method, using either diphenylisobenzofuran (DBPF) or anthracene-9,10-bis-methylmalonate (ADMA) as chemical quenchers in either N,N-dimethylformamide or aqueous media, respectively. Typically, a solution of the phthalocyanine and the quencher was irradiated with a red LED lamp (670 nm) at 5 mW/cm^2. The initial DPBF or ADMA concentrations were kept the same for both the reference and the test samples. The degradation of the DPBF band at 414 nm or ADMA at 401 nm was monitored in a Varian Cary® 50 UV-Vis spectrophotometer, every five seconds in the case of DPBF (up to 30 seconds) and every minute in the case of ADMA (up to five minutes). ZnPc (ΦΔ=0.67) and AlPcSmix (ΦΔ=0.42) were used as references in N,N-dimethylformamide or aqueous media, respectively.
The relative method shown by Eq. (1) was employed for calculations of the ΦΔ:
[formula] • where ΦΔ and ΦΔref are the ^1O2 generation quantum yields for the sample and reference, respectively, m and mref are the DPBF or ADMA photobleaching rates in the presence of the phthalocyanine of the invention and the reference, respectively, and I and Iref are the rates of light absorption by the phthalocyanine derivative and reference, respectively. Concentrations of the test compound and reference were chosen such that their respective absorptions at the irradiation wavelength were the same.

Data set [3] can be described thus: Kinetic (aqueous) solubility in pH 7.4 DPBS, UV quantification. As to conditions: kinetic; pH 7.4 DPBS, 4 hours, room temperature (25° C.).
Data set [4] can be described thus: UV-Vis absorption spectra. The data set is classed as physicochemical. On the procedure: The UV-Vis absorption spectra of the compounds in either an organic solvent or aqueous media was recorded in a Varian Cary® 50 UV-Vis spectrophotometer. Compounds of the invention show absorption in the 600-800 nm region of the spectra.
Data set [5] can be described thus: Thermodynamic solubility in pH 7.4 DPBS, UV quantification. The data set is classed as physicochemical. As to conditions: Dulbecco's phosphate-buffered saline (DPBS), aqueous buffer, thermodynamic from solid, room temperature (25° C.). On the procedure: A working 1 mM stock solution of the test compound in DMSO was prepared from a 10 mM DMSO stock solution. A spectrum scan from 220 nm to 1000 nm of this working solution was performed in a 96-well UV plate to identify the wavelength maxima. […] The selected stock solution was serially diluted in DMSO to confirm linearity and generate a seven to eight-point calibration curve. Of note, only linear points were considered in the curve.
The resulting solution was placed on a RotoSpin™ shaker at 50 rpm for 24 hours at room temperature (25° C.). The solution was then filtered using a 0.45 μm PVDF filter to remove any insoluble fraction of the compound. A 150 μL aliquot of the filtrate was taken for quantification using UV spectroscopy (POLARstar Omega BMG Plate Reader). The optical densities of the standard solutions and the test sample were acquired at the same wavelength maxima. The test sample concentration was calculated from its optical density using the linearity/calibration curve.

For data set [6] the following is noted: cited from earlier work.

As to “3-((6-((λ^5-azaneyl)oxy)-6-oxohexyl)(3-(((λ5-azaneyl)oxy)sulfonyl)propyl)(3-(((19-(((3-(bis(3-(((λ5-azaneyl)oxy)sulfonyl)propyl)(3-sulfonatopropyl)ammonio)propyl)dimethylsilyl)oxy)-19H-6,11-(azeno)-17,21-(azeno[3]episoindoloazeno)benzo[7,8][1,3,5,10]tetraaza[2]silacycloundecino[4,3-a:11,1-a′]diisoindol-19-yl)oxy)dimethylsilyl)propyl)ammonio)propane-1-sulfonate [Example 12]”, the “cell death (cytotoxicity) following illumination” value in data set [1] was “dose-dependent cytotoxicity”. In addition, the “ΦΔ (singlet oxygen quantum yield)” value in data set [2] is listed as “B (B: >0.5)”. The “Solubility* (kinetic solubility)” value in data set [3] is reported as “C (C: >100 μg/mL)”.

As for “4-((6-((λ5-azaneyl)oxy)-6-oxohexyl)(4-(((λ5-azaneyl)oxy)sulfonyl)butyl)(3-(((19-(((3-(bis(4-(((λ5-azaneyl)oxy)sulfonyl)butyl)(4-sulfonatobutyl)ammonio)propyl)dimethylsilyl)oxy)-19H-6,11-(azeno)-17,21-(azeno[3]episoindoloazeno)benzo[7,8][1,3,5,10]tetraaza[2]silacycloundecino[4,3-a:11,1-a′]diisoindol-19-yl)oxy)dimethylsilyl)propyl)ammonio)butane-1-sulfonate [Example 13]”, the “cell death (cytotoxicity) following illumination” value in data set [1] is listed as “dose-dependent cytotoxicity”. Further, in data set [4], the “maximum UV absorbance (UVmax)” value worked out at 677 nm. The “absorption at 690 nm relative to UVmax” value in data set [4] (wavelength 690 nm) is recorded as “approximately 50%”. In addition, the “ΦΔ (singlet oxygen quantum yield)” value in data set [2] is listed as “B (B: >0.5)”. Also, the “Solubility* (kinetic solubility)” value in data set [3] is “C (C: >100 μg/mL)”.

For orientation: solubility (thermodynamic) means the concentration in solution at equilibrium with solid. As to `C[Si](C)(CCCNC(=O)CCCCC(=O)O)O[Si-2]123(O[Si](C)(C)CCCNC(=O)C(CCC[N+](CCCS(=O)(=O)O)(CCCS(=O)(=O)O)CCCS(=O)(=O)O)CCC[N+](CCCS(=O)(=O)O)(CCCS(=O)(=O)O)CCCS(=O)(=O)O)n4c5c6ccccc6c4N=C4c6ccccc6C(=[N+]41)N=c1c4ccccc4c(n12)=NC1=[N+]3C(=N5)c2ccccc21.[Na+].[Na+].[Na+].[Na+].[Na+]` [Example 20], in data set [5], the solubility (thermodynamic) at 24 h is > 100 µg/mL.

With `C[Si](C)(CCC[N+](CCCCS(=O)(=O)O)(CCCCS(=O)(=O)O)CCCCS(=O)(=O)O)O[Si-2]123(O[Si](C)(C)CCC[N+](CCCCS(=O)(=O)O)(CCCCS(=O)(=O)O)CCOCCOCCOCCOCCC(=O)O)n4c5c6ccccc6c4N=C4c6ccccc6C(=[N+]41)N=c1c4ccccc4c(n12)=NC1=[N+]3C(=N5)c2ccccc21.[Na+].[Na+].[Na+].[Na+]` [Example 22, Sodium 2-((19-((dimethyl(3-(tris(4-sulfonatobutyl)ammonio)propyl)silyl)oxy)-19H-6,11-(azeno)-17,21-(azeno[3]episoindoloazeno)benzo[7,8][1,3,5,10]tetraaza[2]silacycloundecino[4,3-a:11,1-a′]diisoindol-19-yl)oxy)-2-methyl-6,6-bis(4-sulfonatobutyl)-9,12,15,18-tetraoxa-6-aza-2-silahenicosan-6-ium-21-oate], the solubility (thermodynamic) at 24 h in data set [5] is > 100 µg/mL.

For `[Zn+2].c1ccc2c(c1)-c1nc-2nc2[n-]c(nc3nc([n-]c4nc(n1)-c1ccccc1-4)-c1ccccc1-3)c1ccccc21` [ZnPc], the ΦΔ of reference in data set [6] (reference in N,N-dimethylformamide) is given as 0.67.

On to AlPcSmix, for which, in data set [6] (reference in aqueous media), the ΦΔ of reference is listed as 0.42.
